Drawing on patent publication US11759461B2, “Small molecule inhibitors of cancer stem cells and mesenchymal cancer types” (The Scripps Research Institute, priority 2017, dated 2023), this text covers IC50 for 56 compounds.

Like-named read-outs stand apart in the source and are kept apart here. A value given as a limit tells only on which side of the number the result lay.

In the assay the test system is FOXC2-expressing HMLER cells. Put plainly: Cell Titer Glo viability of FOXC2-HMLER cells (high throughput screen and 10-point response). The assay is classed as cell-based. As to conditions: Homo sapiens, 72 hours. The method, then:
For high throughput screening, FOXC2-HMLER and HMLER cells were plated at 10^3 cells per well in white 384-well plates in 50 μL of MEGM medium (Lonza). Cells were allowed to attach for one hour before compound was transferred to each well as a DMSO solution using a 100 nL pintool head affixed to a PerkinElmer FX instrument. After 72-hour incubation, 30 μL of a Cell Titer Glo solution (diluted 1:6 in water, Promega) was dispensed into each well and luminance values were recorded using an Envision plate reader. […] All other miniaturized, selective viability experiments were performed as above using the indicated growth medium.
More specifically, in the high throughput screening assay above, each cell line was plated at 1,000 cells per well in 384-well plates, treated for 72 hours with 2 μM of test compound, and the viability of each line was determined in parallel by Cell Titer Glo (Promega) luminance measurements.

Setting [1] is: scored relative to parent compound 1, read-out: Activity Score, inhibition of FOXC2-expressing HMLER cells by Formula I compounds.
Setting [2] is: scored relative to parent compound 2, read-out: Activity Score, inhibition of FOXC2-expressing HMLER cells by Formula II compounds.

Regarding `CC1CC(C)CN(c2cnnc3c(Cl)cccc23)C1` (centres unmarked) [Compound 1A], under setting [1], the IC50 was in the range of 1 to 20 µM. On the same count and under the same terms, with `Cc1ccc(-c2cc3c(N4CCN(c5ccccc5)CC4)nccn3n2)cc1C` [Compound 1B] the figure was 1 to 20 µM; with `Cc1ccc(N2CCN(c3nccn4nc(-c5ccccc5)cc34)CC2)cc1` [Compound 1C], 1 to 20 µM. As for `Clc1cccc(N2CCN(c3cnc4ccccc4n3)CC2)c1` [Compound 1D], the IC50 under setting [1] is 1 to 20 µM.

`Clc1ccc(N2CCN(c3ccccc3Cl)CC2)nn1` [Compound 1E]: the IC50 under setting [1] was > 20 µM. As for `COc1ccc(N2CCN(c3nccn4nc(-c5ccc(Cl)cc5)cc34)CC2)cc1` [Compound 1F], the IC50 under setting [1] was > 20 µM. Same read-out and setting: with `Clc1ccc2c(N3CCNCC3)ccnc2c1` [Compound 1G] the figure was > 20 µM; with `Clc1ccc(N2CCN(c3cnnc4c(Cl)cccc34)CC2)cc1Cl` [Compound 1SRAA], 1 to 20 µM; with `Clc1ccc(Cl)c(N2CCN(c3cnnc4c(Cl)cccc34)CC2)c1` [Compound 1SRAB], 1 to 20 µM.

`FC(F)(F)Oc1cccc(N2CCN(c3cnnc4c(Cl)cccc34)CC2)c1` [Compound 1SRAC]: the IC50 under setting [1] is 1 to 20 µM. Turning to `Clc1cccc(N2CCN(c3cnnc4c(Cl)cccc34)CC2)n1` [Compound 1SRAD], the IC50 under setting [1] lay within 1 to 20 µM. On to `Clc1nccc(N2CCN(c3cnnc4c(Cl)cccc34)CC2)n1` [Compound 1SRAE], for which the IC50 under setting [1] was > 20 µM.

In the case of `Clc1cncc(N2CCN(c3cnnc4c(Cl)cccc34)CC2)n1` [Compound 1SRAF], the IC50 under setting [1] is > 20 µM. The same measure, in the same setting: with `Fc1cc(Cl)cc(N2CCN(c3cnnc4c(Cl)cccc34)CC2)c1` [Compound 1SRAG] the figure was < 1 µM; with `COc1cc(Cl)cc(N2CCN(c3cnnc4c(Cl)cccc34)CC2)c1` [Compound 1SRAH], < 0.234 µM. The same measure, in the same setting: with `Cc1cc(Cl)cc(N2CCN(c3cnnc4c(Cl)cccc34)CC2)c1` [Compound 1SRAI] the figure was < 1 µM; with `FC(F)(F)c1cc(Cl)cc(N2CCN(c3cnnc4c(Cl)cccc34)CC2)c1` [Compound 1SRAJ], 1 to 20 µM; with `N#Cc1cc(Cl)cc(N2CCN(c3cnnc4c(Cl)cccc34)CC2)c1` [Compound 1SRAK], < 1 µM. On the same count and under the same terms, with `Cc1c(Cl)cc(N2CCN(c3cnnc4c(Cl)cccc34)CC2)cc1Cl` [Compound 1SRAL] the figure was 1 to 20 µM; with `Cc1c(S(=O)(=O)N2CCN(c3cnnc4c(Cl)cccc34)CC2)cnn1C(F)F` [Compound 1SRAM], > 20 µM; with `Clc1cc(Cl)cc(N2C[C@@H]3C[C@H]2CN3c2cnnc3c(Cl)cccc23)c1` [Compound 1SRAN], < 1 µM. Consider `Clc1cc(Cl)cc(N2CCN(c3cnnc4c(Cl)cccc34)CC2)c1` [Compound 1SRH], for which, under setting [1], the IC50 was < 0.234 µM. Still for that read-out and setting: with `Fc1c(Cl)cc(N2CCN(c3cnnc4c(Cl)cccc34)CC2)cc1Cl` [Compound 1SRI] the figure was 1 to 20 µM; with `Fc1ccc(N2CCN(c3cnnc4c(Cl)cccc34)CC2)cc1Cl` [Compound 1SRJ], 1 to 20 µM; with `Fc1c(Cl)cccc1N1CCN(c2cnnc3c(Cl)cccc23)CC1` [Compound 1SRK], 1 to 20 µM.

Take `CC1CN(c2cc(Cl)cc(Cl)c2)CCN1c1cnnc2c(Cl)cccc12` (centres unmarked) [Compound 1SRL]: the IC50 under setting [1] is < 1 µM. The same measure, in the same setting: with `CC1CN(c2cnnc3c(Cl)cccc23)CCN1c1cc(Cl)cc(Cl)c1` (centres unmarked) [Compound 1SRM] the figure was < 1 µM; with `Clc1cc(Cl)cc(N2CCN(c3cnnc4ccccc34)CC2)c1` [Compound 1SRN], < 1 µM; with `Fc1cccc(N2CCN(c3cnnc4c(Cl)cccc34)CC2)c1` [Compound 1SRO], 1 to 20 µM. Take `FC(F)(F)c1cccc(N2CCN(c3cnnc4c(Cl)cccc34)CC2)c1` [Compound 1SRP]: the IC50 under setting [1] lay in the range of 1 to 20 µM. Regarding `FC(F)(F)Sc1cccc(N2CCN(c3cnnc4c(Cl)cccc34)CC2)c1` [Compound 1SRQ], the IC50 under setting [1] lay in the range of 1 to 20 µM.

For `COc1cccc(N2CCN(c3cnnc4c(Cl)cccc34)CC2)c1` [Compound 1SRT], under setting [1], the IC50 was < 1 µM. Still for that read-out and setting: with `NC(=O)c1cccc(N2CCN(c3cnnc4c(Cl)cccc34)CC2)c1` [Compound 1SRV] the figure was 1 to 20 µM. Same read-out and setting: with `Clc1ccccc1N1CCN(c2cnnc3c(Cl)cccc23)CC1` [Compound 1SRW] the figure was 1 to 20 µM; with `Clc1cccc2c(N3CCN(c4ccccc4)CC3)cnnc12` [Compound 1SRX], > 20 µM; with `Clc1ccc(N2CCN(c3cnnc4c(Cl)cccc34)CC2)cc1` [Compound 1SRY], > 20 µM. Turning to `Clc1cccc(N2CCN(c3cnnc4c(Cl)cccc34)CC2)c1Cl` [Compound 1SRZ], the IC50 under setting [1] is > 20 µM. With `COc1ccc(NCc2cc3cc4c(cc3n(CC(=O)Nc3ccccc3)c2=O)OCCO4)cc1` [Compound 2AA], the IC50 under setting [2] lay in the range of 1 to 20 µM.

Consider `COc1cc2cc(CNc3ccc(C)cc3)c(=O)n(CC(=O)Nc3cc(C)ccc3C)c2cc1OC` [Compound 2AB], for which the IC50 under setting [2] was in the range of 1 to 20 µM. With `COc1ccc2cc(CNc3ccc(C)cc3)c(=O)n(CC(=O)Nc3ccc(C)cc3C)c2c1` [Compound 2AC], the IC50 under setting [2] lay within 1 to 20 µM. Still for that read-out and setting: with `CCc1ccccc1NC(=O)Cn1c(=O)c(CNc2ccccc2)cc2cc3c(cc21)OCCO3` [Compound 2AD] the figure was 1 to 20 µM; with `CCc1ccc(NC(=O)Cn2c(=O)c(CNc3ccccc3)cc3cc4c(cc32)OCCO4)cc1` [Compound 2AE], 1 to 20 µM. For `CCc1ccccc1NC(=O)Cn1c(=O)c(CNc2ccc(C)cc2)cc2cc3c(cc21)OCCO3` [Compound 2AF], the IC50 under setting [2] was 1 to 20 µM. Same read-out and setting: with `CCOc1ccccc1NC(=O)Cn1c(=O)c(CNc2ccccc2)cc2ccc(OC)cc21` [Compound 2AG] the figure was 1 to 20 µM; with `COc1ccc2cc(CNc3ccc(C)cc3)c(=O)n(CC(=O)Nc3ccc(F)cc3)c2c1` [Compound 2AH], 1 to 20 µM; with `CCc1ccccc1NC(=O)Cn1c(=O)c(CNc2ccc(OC)cc2)cc2cc3c(cc21)OCCO3` [Compound 2AI], 1 to 20 µM. Still for that read-out and setting: with `COc1ccc(NCc2cc3ccc(C)cc3n(CC(=O)Nc3ccccc3C)c2=O)cc1OC` [Compound 2AJ] the figure was 1 to 20 µM; with `Cc1ccc(NCc2cc3cc4c(cc3n(CC(=O)Nc3ccccc3C)c2=O)OCCO4)cc1` [Compound 2AK], 1 to 20 µM; with `CCc1ccc(NCc2cc3cc4c(cc3n(CC(=O)Nc3ccc(OC)cc3)c2=O)OCCO4)cc1` [Compound 2AL], 1 to 20 µM. On to `Cc1ccc(NCc2cc3cc4c(cc3n(CC(=O)Nc3c(C)cccc3C)c2=O)OCCO4)cc1` [Compound 2AM], for which the IC50 under setting [2] was in the range of 1 to 20 µM.

In the case of `CCc1ccc(NCc2cc3ccc(OC)cc3n(CC(=O)Nc3cc(C)ccc3C)c2=O)cc1` [Compound 2AN], the IC50 under setting [2] was in the range of 1 to 20 µM.

`CCc1ccc(NCc2cc3ccc(OC)cc3n(CC(=O)Nc3c(C)cc(C)cc3C)c2=O)cc1` [Compound 2AO]: under setting [2], the IC50 was in the range of 1 to 20 µM.

For `CCc1ccc(NCc2cc3ccc(OC)cc3n(CC(=O)Nc3ccccc3CC)c2=O)cc1` [Compound 2AP], the IC50 under setting [2] was in the range of 1 to 20 µM. For `CCOC(=O)c1ccc(NC(=O)Cn2c(=O)c(CNc3ccccc3)cc3ccc(OC)cc32)cc1` [Compound 2AQ], the IC50 under setting [2] is > 20 µM.

For `COc1ccc2cc(CNc3ccccc3)c(=O)n(CC(=O)NCc3ccc(Cl)cc3)c2c1` [Compound 2AR], under setting [2], the IC50 is > 20 µM. Same read-out and setting: with `CCc1ccc(NCc2cc3cc(OC)c(OC)cc3n(CC(=O)Nc3ccc(CC)cc3)c2=O)cc1` [Compound 2AS] the figure was > 20 µM.
